Laboratory results: article PMC4373884, “Crystal Structures of the Kinase Domain of the Sulfate-Activating Complex in Mycobacterium tuberculosis” (PLoS ONE, 2015)

Tests used:
[1] = target: T1, CysC (APS kinase domain of CysN) (Mycobacterium tuberculosis, UniProt P9WNM5)
T1 construct: gene cysNC

[2] = target: T1, CysC (APS kinase domain of CysN); remark: listed apart in the source

T1 sequence (P9WNM5 424-612): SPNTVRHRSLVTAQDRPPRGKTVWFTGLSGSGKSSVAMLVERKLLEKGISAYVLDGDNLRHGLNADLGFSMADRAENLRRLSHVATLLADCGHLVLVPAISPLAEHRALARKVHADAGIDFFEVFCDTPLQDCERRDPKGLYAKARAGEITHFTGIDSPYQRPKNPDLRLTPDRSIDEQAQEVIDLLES

Nc1ncnc2c1ncn2[C@@H]1O[C@H](COP(=O)(O)OP(=O)(O)NP(=O)(O)O)[C@@H](O)[C@H]1O [AMP-PNP]
X-ray crystal structure [1]: The bound ligands AMP-PNP and APS are well defined in electron density

Nc1ncnc2c1ncn2[C@@H]1O[C@H](COP(=O)(O)OP(=O)(O)OP(=O)(O)O)[C@@H](O)[C@H]1O [ATP]
ADP-Glo luminescence kinase assay [2]: The CysC domain used in this study is catalytically active and shows APS kinase activity

Nc1ncnc2c1ncn2[C@@H]1O[C@H](COP(=O)(O)OP(=O)(O)O)[C@@H](O)[C@H]1O [ADP]
X-ray crystal structure [1]: The electron density maps clearly show the presence of one molecule of ADP per subunit
